Data as given in article PMC6406002, “Comparison of the functional properties of trimeric and monomeric CaiT of Escherichia coli” (Scientific Reports, 2019).
Like-named read-outs stand apart in the source and are kept apart here.

Legend:
Test in all cases: tryptophan fluorescence titration
Assay type in all cases: binding
CaiT [1] = biological target: T1, CaiT (Escherichia coli, UniProt P31553, D288R)
T1 construct: full-length with C-terminal 6His tag (pET21a), expressed in E. coli JW0039 (delta caiT), Ni-NTA purified; homotrimer (D288A and D288R mostly monomeric); DDM-solubilized or in proteoliposomes
Source text: (§1) tryptophan fluorescence titration on CaiT

CaiT [2] = biological target: T2, CaiT (Escherichia coli, UniProt P31553)
T2 construct: full-length with C-terminal 6His tag (pET21a), expressed in E. coli JW0039 (delta caiT), Ni-NTA purified; homotrimer (D288A and D288R mostly monomeric); DDM-solubilized or in proteoliposomes
Source text: as §1

CaiT [3] = biological target: T3, CaiT (Escherichia coli, UniProt P31553, D288A)
T3 construct: full-length with C-terminal 6His tag (pET21a), expressed in E. coli JW0039 (delta caiT), Ni-NTA purified; homotrimer (D288A and D288R mostly monomeric); DDM-solubilized or in proteoliposomes
Source text: as §1

Kd (CaiT [1]; read-out: γ-butyrobetaine / Kd) | Kd (CaiT [2]; read-out: γ-butyrobetaine / Kd) | Kd (CaiT [3]; read-out: γ-butyrobetaine / Kd) | Kd (CaiT [1]; read-out: L-carnitine / Kd) | Kd (CaiT [2]; read-out: L-carnitine / Kd) | Kd (CaiT [3]; read-out: L-carnitine / Kd) | SMILES
11.4 ± 4.4 mM | 3.4 ± 0.1 mM | 3.3 ± 1.3 mM |  |  |  | C[N+](C)(C)CCCC(=O)[O-] [γ-butyrobetaine]
 |  |  | 1.9 ± 1 mM | 3.3 ± 0.2 mM | 1.8 ± 0.9 mM | C[N+](C)(C)C[C@H](O)CC(=O)O [L-carnitine]
